Marks after values point to notes of the source that are not given here.
Key:
rat pituitary cell = conditions: LH-releasing activity compared to that produced by 3 nM LH-RH; peptide infused for 3 minutes
Description: Ability of compounds to influence LH release in vitro is assayed by using a superfused rat pituitary cell system [S. Vigh and A. V. Schally, Peptides, 5 Suppl.
LH-releasing effect of compounds is determined as follows: each peptide is perfused through the cells for 3 min (1 ml perfusate) at 20-100 pM. LH content of 1 ml fractions collected is determined by radioimmunoassay (RIA). Potency of peptides is compared to that of 3 nM LHRH perfused similarly.
The peptide was infused for 3 minutes at various concentration, and the amount of LH released was compared to that released by 3 nM LHRH.

[1] = system: membrane receptors of human breast cancer cells; assay: Receptor binding affinity for human breast cancer cell membranes, labelled [D-Trp6]LHRH as ligand
Description: Affinity for peptides to human breast cancer cell membranes is determined by using labelled LHRH and [D-Trp⁶]LHRH. The assay is carried out similarly to that described by T. Kadar et al., Proc. Natl. Acad. Sci. USA, 85, 890-894 (1988) and M. Fekete et al., Endocrinology, 124, 946-955 (1989).
(§1) Table 2 presents the antiovulatory activity and human breast cancer cell membrane receptor binding affinity of the claimed compounds having LHRH-inhibiting properties. The inhibitory action was determined in vivo, in 4-day cycling rats as described [A. Corbin and C. W. Beattie, Endocr. Res. Commun., 2, 1-23 (1975)].

4-day-cycling rats = assay: In vivo antiovulatory activity; conditions: 10 µg per rat
Description: This activity of the peptides is determined in 4-day-cycling rats as described [A. Corbin and C. W. Beattie, Endocr. Res. Commun., 2, 1-23 (1975)].
as §1

[2] = system: MCF-7 human breast cancer cell line; assay: Cytotoxicity test: inhibition of 3H-thymidine incorporation into DNA; format: cell-based
Description: Ability of peptides of Formula I to inhibit incorporation of [³H]thymidine into DNA of monolayer cultures the human mammary tumor cell line MCF-7 is assayed as described [V. K. Sondak et al., Cancer Research, 44, 1725-1728 (1984); F. Holzel et al., J. Cancer Res. Clin. Oncol. 109, 217-226 (1985); M. Albert et al., J. Cancer Res. Clin. Oncol. 109, 210-216 (1985)].
200,000 cells in 200 µl of […] + 2% CFBS were incubated with 1,5 or 10 µg cytotoxic analogs for 3 hours or 23 hours then 1 µCi ³H-thymidine added and incubated an additional 60 min. DNA extracted with 1 N perchloric acid and the radioactivity measured.

[3] = system: human mammary cell line MDA-MB-231; conditions: 10µg dose; cited from earlier work
[4] = Table 2, ¹²⁵I-[D-Trp]⁶ LHRH used as the labelled ligand
[5] = Table 1, ¹²⁵I-[D-Trp]⁶LHRH used as labelled ligand

Row | Molecule | Affinity Constant Ka1 [1, 4] [nM⁻¹] | %Ovulation Blockade (4-day-cycling rats) [%] | % Inhibition at 24 hrs ([2]; Dose 1 µg/ml) [%] | % Inhibition at 24 hrs ([2]; Dose 10 µg/ml) | Affinity Constant Ka1 [1, 5] [nM⁻¹] | further results
1 | CC(C)C[C@H](NC(=O)[C@@H](CCCCNC(=O)CCCC(=O)OCc1ccc2c(c1)C(=O)c1ccccc1C2=O)NC(=O)[C@H](Cc1ccc(O)cc1)NC(=O)[C@H](CO)NC(=O)[C@H](Cc1c[nH]c2ccccc12)NC(=O)[C@H](Cc1c[nH]cn1)NC(=O)[C@@H]1CCC(=O)N1)C(=O)N[C@@H](CCCNC(=N)N)C(=O)N1CCC[C@H]1C(=O)NCC(N)=O [compound 1, pGlu-His-Trp-Ser-Tyr-D-Lys(HMAQG)-Leu-Arg-Pro-Gly-NH₂] |  |  |  |  |  | Relative Activity (rat pituitary cell): 35
2 | Ac-Nal(2)-D-Phe(4Cl)-D-Pal(3)-Ser-Arg-D-Lys[A₂pr(HMAQG)₂]-Leu-Arg-Pro-D-Ala-NH₂ [compound 4] | 2.28 | 40 | 15 | 40** % |  | % Inhibition at 4 hrs ([2]; Dose 1 µg/ml): 31** %; % Inhibition at 4 hrs ([2]; Dose 10 µg/ml): 28** %
3 | Ac-Nal(2)-D-Phe(4Cl)-D-Trp-Ser-Arg-D-Lys[A₂pr(HMAQG)₂]-Leu-Arg-Pro-D-Ala-NH₂ [compound 3] | 7.05 | 0 | 3 | 11% |  | Affinity Constant Ka2 [1, 4]: 8.6 µM⁻¹
4 | pGlu-His-Trp-Ser-Tyr-D-Lys(MTX)-Leu-Arg-Pro-Gly-NH₂ [2A] |  |  |  |  | 5.42 | Affinity Constant Ka2 [1, 5]: 1.59 µM⁻¹
5 | pGlu-His-Trp-Ser-Tyr-D-Lys(MTX)-Leu-Arg-Pro-Gly-NH₂ [2B] |  |  |  |  | 0.63 | 
6 | pGlu-His-Trp-Ser-Tyr-D-Lys[Ahx-A₂bu(SAL)₂(Cu)]-Leu-Arg-Pro-Gly-NH₂ |  |  |  |  |  | inhibits the [³H]thymidine incorporation into DNA [3]: 87%

— EP0450461B1, “LHRH Analogs” (The Administrators of The Tulane Educational Fund, priority 1990, dated 1991)
